Measurements published in patent US20020187514A1 (priority 1999, published 2002).

System: Epidermal Growth Factor, EGF
Experiment: Epidermal Growth Factor, EGF; [125I]EGF
Assay type: binding
Details: 10^−5 M

COC(=O)[C@H]1[C@@H](OC(=O)c2ccccc2)C[C@@H]2CC[C@H]1N2C [cocaine]
Pass 1 (10^−5 M) % Inhibition: 10.05%
